Test system: 616215-338-R-J1-PDC complex spheroid viability
Test: Anticancer human tumor 616215-338-R-J1-PDC patient-derived colon adenocarcinoma cell line growth inhibition [POLQ]
Details: for IC50: curve of first compound; for viability, T/C: stronger effect = lower value
Procedure, shortened: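 Complex spheroid viability model combining PDC tumour cells with endothelial (HUVEC) and MSC stromal cells. Novobiocin, ART-558 or RP6685 were tested singly and in combination with standard and investigational anticancer drugs. Each was titrated in half-log steps from near clinical Cmax, or from 10 microM where Cmax was unknown.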

[1] = second compound 0.0316 µM, first compound 0.0316 µM
[2] = second compound 0.0316 µM, first compound 0.1 µM
[3] = second compound 0.0316 µM, first compound 0.316 µM
[4] = second compound 0.0316 µM, first compound 1 µM
[5] = second compound 0.1 µM, first compound 0.0316 µM
[6] = second compound 0.1 µM, first compound 0.1 µM
[7] = second compound 0.1 µM, first compound 0.316 µM
[8] = second compound 0.1 µM, first compound 1 µM
[9] = second compound 0.316 µM, first compound 0.0316 µM
[10] = second compound 0.316 µM, first compound 0.1 µM
[11] = second compound 0.316 µM, first compound 0.316 µM
[12] = second compound 0.316 µM, first compound 1 µM
[13] = second compound 1 µM, first compound 0.0316 µM
[14] = second compound 1 µM, first compound 0.1 µM
[15] = second compound 1 µM, first compound 0.316 µM
[16] = second compound 1 µM, first compound 1 µM
[17] = second compound 3.16 µM, first compound 0.0316 µM
[18] = second compound 3.16 µM, first compound 0.1 µM
[19] = second compound 3.16 µM, first compound 0.316 µM
[20] = second compound 3.16 µM, first compound 1 µM
[21] = second compound 10 µM, first compound 0.0316 µM
[22] = second compound 10 µM, first compound 0.1 µM
[23] = second compound 10 µM, first compound 0.316 µM
[24] = second compound 10 µM, first compound 1 µM
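Also: spheroids exposed to compounds for one week before readout.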
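For viability, T/C in this document: percent viability relative to DMSO vehicle wells taken as 100%.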

With CCCS(=O)(=O)Nc1ccc(F)c(C(=O)c2c[nH]c3ncc(-c4ccc(Cl)cc4)cc23)c1F + Cc1cccc(N(C)C(=O)C2C(O)CCN2c2nc(C)cc(C(F)(F)F)c2C#N)c1 the IC50 (second compound 0.0316 µM) was 5760 nM, the IC50 (second compound 0.1 µM) was 5710 nM and the IC50 (second compound 0.316 µM) was 5240 nM. For the same molecule, the IC50 (second compound 1 µM) was 5510 nM, the IC50 (second compound 3.16 µM) was 5310 nM and the IC50 (second compound 10 µM) was 4290 nM. The viability, T/C [1] was 114%, the viability, T/C [2] was 95.5% and the viability, T/C [3] was 101%. For the same molecule, the viability, T/C [4] was 105%, the viability, T/C (second compound 0.0316 µM, first compound 3.16 µM) was 89.5% and the viability, T/C (second compound 0.0316 µM, first compound 10 µM) was 13.4%. It also gave a viability, T/C [5] of 115%, a viability, T/C [6] of 109% and a viability, T/C [7] of 101%. It also gave a viability, T/C [8] of 108%, a viability, T/C (second compound 0.1 µM, first compound 3.16 µM) of 91% and a viability, T/C (second compound 0.1 µM, first compound 10 µM) of 11.2%. For the same molecule, the viability, T/C [9] was 112%, the viability, T/C [10] was 107% and the viability, T/C [11] was 99%. For the same molecule, the viability, T/C [12] was 97.5%, the viability, T/C (second compound 0.316 µM, first compound 3.16 µM) was 83.4% and the viability, T/C (second compound 0.316 µM, first compound 10 µM) was 9.28%. For the same molecule, the viability, T/C [13] was 99.5%, the viability, T/C [14] was 101% and the viability, T/C [15] was 104%. The viability, T/C [16] was 105%, the viability, T/C (second compound 1 µM, first compound 3.16 µM) was 86.9% and the viability, T/C (second compound 1 µM, first compound 10 µM) was 10.2%. The viability, T/C [17] was 114%, the viability, T/C [18] was 98.6% and the viability, T/C [19] was 99.4%. It also gave a viability, T/C [20] of 101%, a viability, T/C (second compound 3.16 µM, first compound 3.16 µM) of 83.2% and a viability, T/C (second compound 3.16 µM, first compound 10 µM) of 10%. For the same molecule, the viability, T/C [21] was 105%, the viability, T/C [22] was 100% and the viability, T/C [23] was 92.7%. The viability, T/C [24] was 98.1%, the viability, T/C (second compound 10 µM, first compound 3.16 µM) was 65.8% and the viability, T/C (second compound 10 µM, first compound 10 µM) was 7.05%.
Molecule COc1cccc(OCCCN)c1-c1cc(Nc2cnc(C#N)cn2)n[nH]1 + Cc1cccc(N(C)C(=O)C2C(O)CCN2c2nc(C)cc(C(F)(F)F)c2C#N)c1 has an IC50 (second compound 0.0316 µM) of 92.9 nM, an IC50 (second compound 0.1 µM) of 62.2 nM and an IC50 (second compound 0.316 µM) of 58.3 nM. The IC50 (second compound 1 µM) was 53.8 nM, the IC50 (second compound 3.16 µM) was 56.1 nM and the IC50 (second compound 10 µM) was 37.4 nM. The viability, T/C (second compound 0.0316 µM, first compound 0.00316 µM) was 94.8%, the viability, T/C (second compound 0.0316 µM, first compound 0.01 µM) was 89.4% and the viability, T/C [1] was 73.1%. It also gave a viability, T/C [2] of 47.9%, a viability, T/C [3] of 38.9% and a viability, T/C [4] of 35.3%. The viability, T/C (second compound 0.1 µM, first compound 0.00316 µM) was 107%, the viability, T/C (second compound 0.1 µM, first compound 0.01 µM) was 97.8% and the viability, T/C [5] was 57.3%. It also gave a viability, T/C [6] of 47.8%, a viability, T/C [7] of 34.3% and a viability, T/C [8] of 29.9%. It also gave a viability, T/C (second compound 0.316 µM, first compound 0.00316 µM) of 99%, a viability, T/C (second compound 0.316 µM, first compound 0.01 µM) of 86.1% and a viability, T/C [9] of 61.7%. For the same molecule, the viability, T/C [10] was 38.3%, the viability, T/C [11] was 37% and the viability, T/C [12] was 29.3%. The viability, T/C (second compound 1 µM, first compound 0.00316 µM) was 108%, the viability, T/C (second compound 1 µM, first compound 0.01 µM) was 89.9% and the viability, T/C [13] was 56.1%. It also gave a viability, T/C [14] of 41.3%, a viability, T/C [15] of 35.8% and a viability, T/C [16] of 26.7%. For the same molecule, the viability, T/C (second compound 3.16 µM, first compound 0.00316 µM) was 86.8%, the viability, T/C (second compound 3.16 µM, first compound 0.01 µM) was 82.9% and the viability, T/C [17] was 60.4%. The viability, T/C [18] was 38.4%, the viability, T/C [19] was 43.8% and the viability, T/C [20] was 29.1%. It also gave a viability, T/C (second compound 10 µM, first compound 0.00316 µM) of 104%, a viability, T/C (second compound 10 µM, first compound 0.01 µM) of 81.3% and a viability, T/C [21] of 47.5%. It also gave a viability, T/C [22] of 38.3%, a viability, T/C [23] of 34.7% and a viability, T/C [24] of 21.2%.

— PubChem BioAssay AID1963843 (Molecular Pharmacology Branch, DTP, NCI, 2024)
